{"source": "patent US20040260318A1", "about": "“Anastomotic connector devices” (Angiotech International AG, priority 2003, published 2004)", "key": {"collagenase expression": {"system": "collagenase expression", "assay": "Effect of other anti-microtubule agents on IL-1-induced collagenase expression in primary chondrocytes", "format": "cell-based, calf", "conditions": "pre-incubation of chondrocytes 6 hours, then IL-1 20 ng/ml 18 hours; FIGS. 7A-H", "method": "Primary chondrocyte cultures were freshly isolated from calf cartilage. The cells were plated at 2.5×10^6 per ml in 100×20 mm culture dishes and incubated in Ham's F12 medium containing 5% FBS overnight at 37° C. The cells were starved in serum-free medium overnight and then treated with anti-microtubule agents at various concentrations for 6 hours. IL-1 (20 ng/ml) was then added to each plate and the plates incubated for an additional 18 hours. Total RNA was isolated by the acidified guanidine isothiocyanate method and subjected to electrophoresis on a denatured gel. Denatured RNA samples (15 μg) were analyzed by gel electrophoresis in a 1 % denatured gel, transferred to a nylon membrane and hydridized with the ^32P-labeled collagenase cDNA probe. ^32P-labeled glyceraldehyde phosphate […] (GAPDH) cDNA as an internal standard to ensure roughly equal loading. The exposed films were scanned and quantitatively analyzed with ImageQuant."}, "human fibroblasts": {"system": "human fibroblasts", "assay": "Screening assay for effect on cell proliferation (CYQUANT fluorescence)", "format": "cell-based", "conditions": "Fibroblast, 72 hours incubation, FIG. 2", "method": "Fibroblasts at 70-90% confluency are trypsinized, replated at 600 cells/well in media in 96-well plates and allowed to attachment overnight. Mitoxantrone is prepared in DMSO at a concentration of 10^−2 M and diluted 10-fold to give a range of stock concentrations (10^−8 M to 10^−2 M). Drug dilutions are diluted 1/1000 in media and added to cells to give a total volume of 200 μL/well. Each drug concentration is tested in triplicate wells. Plates containing fibroblasts and mitoxantrone are incubated at 37° C. for 72 hours (In vitro toxicol. (1990) 3:219; Biotech. Histochem. (1993) 68: 29; Anal. Biochem. (1993) 213:426).\nTo terminate the assay, the media is removed by gentle aspiration. A 1/400 dilution of CYQUANT 400× GR dye indicator (Molecular Probes; Eugene, Ore.) is added to […] Cell Lysis buffer, and 200 μL of the mixture is added to the wells of the plate. Plates are incubated at room temperature, protected from light for 3-5 minutes. Fluorescence is read in a fluorescence microplate reader at ˜480 nm excitation wavelength and ˜520 nm emission maxima. […] An average of n=4 replicate experiments is used to determine IC50 values."}, "[1]": {"system": "IL-1β production by THP-1 cells", "assay": "IL-1β production by macrophages (opsonized zymosan stimulated, ELISA)", "format": "cell-based", "conditions": "Homo sapiens, 24 hours, 1 mg/mL opsonized zymosan, FIG. 9", "method": "(§1) The human macrophage cell line, THP-1 is plated in a 12 well plate such that each well contains 1×10^6 cells in 2 mL of media containing 10% FCS. Opsonized zymosan is prepared by resuspending 20 mg of zymosan A in 2 mL of ddH2O and homogenizing until a uniform suspension is obtained. Homogenized zymosan is pelleted at 250 g and resuspended in 4 mL of human serum for a final concentration of 5 mg/mL. and incubated in a 37° C. water bath for 20 minutes to enable opsonization. Geldanamycin is prepared in DMSO at a concentration of 10^−2 M and serially diluted 10-fold to give a range of stock concentrations (10^−8 M to 10^−2 M).\nTHP-1 cells are stimulated to produce IL-1β by the addition of 1 mg/mL opsonized zymosan. Geldanamycin is added to THP-1 cells by directly adding DMSO stock solutions, prepared earlier, at a 1/1000 dilution, to each well. […]\n(§2) After a 24 hour stimulation, supernatants are collected to quantify IL-1β production. IL-1β concentrations in the supernatants are determined by ELISA using recombinant human IL-1β to obtain a standard curve. […] The dilution of Capture Antibody used is lot-specific and is determined empirically. […] Stop Solution (2 N H2SO4) is then added to the wells and a yellow colour reaction is read at 450 nm with λ correction at 570 nm. Mean absorbance is determined from triplicate data readings and the mean background is subtracted. […]"}, "[2]": {"system": "IL-8 production by THP-1 cells", "assay": "IL-8 production by macrophages (opsonized zymosan stimulated, ELISA)", "format": "cell-based", "conditions": "Homo sapiens, 24 hours, 1 mg/mL opsonized zymosan, FIG. 10", "method": "as §1\nTHP-1 cells are stimulated to produce IL-8 by the addition of 1 mg/mL opsonized zymosan. Geldanamycin is added to THP-1 cells by directly adding DMSO stock solutions, prepared earlier, at a 1/1000 dilution, to each well. […]\nas §2, with “IL-8” for “IL-1β”"}, "[3]": {"system": "MCP-1 production by THP-1 cells", "assay": "MCP-1 production by macrophages (opsonized zymosan stimulated, ELISA)", "format": "cell-based", "conditions": "Homo sapiens, 24 hours, 1 mg/mL opsonized zymosan, FIG. 11", "method": "as §1\nTHP-1 cells are stimulated to produce MCP-1 by the addition of 1 mg/mL opsonized zymosan. Geldanamycin is added to THP-1 cells by directly adding DMSO stock solutions, prepared earlier, at a 1/1000 dilution, to each well. […]\nas §2, with “MCP-1” for “IL-1β”"}}, "data": [{"compound": "[F][Al]([F])[F]", "note": "[AIF3]", "values": [{"measurement": "concentration (as low as) preventing IL-1-induced collagenase expression", "setting": "collagenase expression", "result": 100, "unit": "nM"}]}, {"compound": "N#CC1=C(N)Oc2c(ccc3ccccc23)C1c1cccc([N+](=O)[O-])c1", "note": "(stereo not shown) [LY290181]", "values": [{"measurement": "concentration (as low as) preventing IL-1-induced collagenase expression", "setting": "collagenase expression", "result": 100, "unit": "nM"}]}, {"compound": "O=C1c2c(O)ccc(O)c2C(=O)c2c(NCCNCCO)ccc(NCCNCCO)c21", "note": "[Mitoxantrone, 9,10-Anthracenedione, 1,4-dihydroxy-5,8-bis[[2-[(2-hydroxyethyl)amino]ethyl]amino]-]", "values": [{"measurement": "IC50", "setting": "human fibroblasts", "result": 20, "unit": "nM"}]}, {"compound": "[2H]O[2H]", "note": "[deuterium oxide]", "values": [{"measurement": "concentration (as low as) preventing IL-1-induced collagenase expression", "setting": "collagenase expression", "result": 100, "unit": "nM"}]}, {"compound": "COC1=C2C[C@@H](C)C[C@H](OC)[C@H](O)[C@@H](C)/C=C(\\C)[C@H](OC(N)=O)[C@@H](OC)/C=C\\C=C(/C)C(=O)NC(=CC1=O)C2=O", "note": "[geldanamycin]", "values": [{"measurement": "IC50", "setting": "[1]", "result": 20, "unit": "nM"}, {"measurement": "IC50", "setting": "[2]", "result": 27, "unit": "nM"}, {"measurement": "IC50", "setting": "[3]", "result": 7, "unit": "nM"}]}, {"compound": "CCOC(=O)CN", "note": "[glycine ethyl ester]", "values": [{"measurement": "concentration (as low as) preventing IL-1-induced collagenase expression", "setting": "collagenase expression", "result": 100, "unit": "nM"}]}, {"compound": "ethylene glycol bis-(succinimidylsuccinate)", "values": [{"measurement": "concentration (as low as) preventing IL-1-induced collagenase expression", "setting": "collagenase expression", "result": 100, "unit": "nM"}]}, {"compound": "hexylene glycol", "values": [{"measurement": "concentration (as low as) preventing IL-1-induced collagenase expression", "setting": "collagenase expression", "result": 100, "unit": "nM"}]}]}
